From ChEMBL document CHEMBL1201862, “PubChem BioAssay data set” (2004)
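The compound was tested at five concentrations on cells cultured in 96-well plates, with a 48-hour exposure period. GI50: concentration for 50% inhibition of growth.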 Active and inactive are the calls of the source. Rule as the data show it: active = GI50 up to about 1.1 µM and inactive = higher.

Experiments:
Experiment in all cases: NCI-60 cell line screen, 48 h
[1] = system: NCI-H23
[2] = system: DU-145
[3] = system: ACHN
[4] = system: Malme-3M
[5] = system: TK-10
[6] = system: A549
[7] = system: UACC-257
[8] = system: SW-620
[9] = system: OVCAR-8
[10] = system: NCI/ADR-RES
[11] = system: UACC-62
[12] = system: IGROV-1
[13] = system: SF-295
[14] = system: SK-MEL-28
[15] = system: SF-539
[16] = system: COLO 205
[17] = system: LOX IMVI
[18] = system: NCI-H460
[19] = system: MOLT-4
[20] = system: HOP-92

Row | SMILES | GI50 [1] | GI50 [2] | GI50 [3] | GI50 [4] | GI50 [5] | GI50 [6] | GI50 [7] | GI50 [8] | GI50 [9] | GI50 [10] | GI50 [11] | GI50 [12] | GI50 [13] | GI50 [14] | GI50 [15] | GI50 [16] | GI50 [17] | GI50 [18] | GI50 [19] | GI50 [20]
1 | OC(COc1ccc(Cl)cc1Cl)CN1CCCC1 (centres undefined) | > 100 µM (inactive) | > 100 µM (inactive) | > 100 µM (inactive) | 60.1 µM (inactive) | > 100 µM (inactive) | > 100 µM (inactive) | 24.2 µM (inactive) | > 100 µM (inactive) | > 100 µM (inactive) | > 100 µM (inactive) | 21.7 µM (inactive) | > 100 µM (inactive) | 89.7 µM (inactive) | 37.7 µM (inactive) | > 100 µM (inactive) | > 100 µM (inactive) | > 100 µM (inactive) | 91.6 µM (inactive) | 42.6 µM (inactive) | 75.9 µM (inactive)
2 | C/C(=C\COP(=O)(O)OP(=O)(O)O)CCCCCCOCc1ccccc1 | > 100 µM (inactive) | > 100 µM (inactive) | > 100 µM (inactive) | > 100 µM (inactive) | > 100 µM (inactive) | > 100 µM (inactive) | > 100 µM (inactive) | > 100 µM (inactive) | > 100 µM (inactive) | > 100 µM (inactive) | > 100 µM (inactive) | > 100 µM (inactive) | > 100 µM (inactive) | > 100 µM (inactive) | > 100 µM (inactive) | > 100 µM (inactive) | > 100 µM (inactive) | > 100 µM (inactive) | > 100 µM (inactive) | > 100 µM (inactive)
3 | O=C(O)CNc1ncc2c(n1)-c1ccccc1OC2 | > 100 µM (inactive) | > 100 µM (inactive) | > 100 µM (inactive) | > 100 µM (inactive) | > 100 µM (inactive) | > 100 µM (inactive) | > 100 µM (inactive) | > 100 µM (inactive) | > 100 µM (inactive) | > 100 µM (inactive) | > 100 µM (inactive) | > 100 µM (inactive) | > 100 µM (inactive) | > 100 µM (inactive) | > 100 µM (inactive) | > 100 µM (inactive) | > 100 µM (inactive) | > 100 µM (inactive) | > 100 µM (inactive) | > 100 µM (inactive)
4 | COC(=N)C1(C#N)NC(c2ccsc2)C(C#N)(C#N)NC1c1ccsc1 (centres undefined) | > 100 µM (inactive) | > 100 µM (inactive) | > 100 µM (inactive) | > 100 µM (inactive) | > 100 µM (inactive) | > 100 µM (inactive) | > 100 µM (inactive) | > 100 µM (inactive) | > 100 µM (inactive) | > 100 µM (inactive) | > 100 µM (inactive) | > 100 µM (inactive) | > 100 µM (inactive) | > 100 µM (inactive) | > 100 µM (inactive) | > 100 µM (inactive) | > 100 µM (inactive) | > 100 µM (inactive) | > 100 µM (inactive) | 60.7 µM (inactive)
5 | N=C(N)NS(=O)(=O)c1ccc(N/N=C2/CCOC2=O)cc1 | > 100 µM (inactive) | > 100 µM (inactive) | 63.5 µM (inactive) | > 100 µM (inactive) | > 100 µM (inactive) | > 100 µM (inactive) | > 100 µM (inactive) | > 100 µM (inactive) | 49.5 µM (inactive) | > 100 µM (inactive) | > 100 µM (inactive) | > 100 µM (inactive) | 49.7 µM (inactive) | > 100 µM (inactive) | > 100 µM (inactive) | > 100 µM (inactive) | > 100 µM (inactive) | > 100 µM (inactive) | 2.95 µM (inactive) | 63.2 µM (inactive)
6 | COc1ccc(-c2nnc(CCCCCCCCc3nnc(-c4ccc(OC)cc4)n3N)n2N)cc1 | > 100 µM (inactive) | > 100 µM (inactive) | > 100 µM (inactive) | > 100 µM (inactive) | > 60 µM (inactive) | > 100 µM (inactive) | > 100 µM (inactive) | > 100 µM (inactive) | > 31.6 µM (inactive) | > 31.6 µM (inactive) | > 92 µM (inactive) | > 96.6 µM (inactive) | > 59.4 µM (inactive) | > 100 µM (inactive) | > 76.2 µM (inactive) | > 100 µM (inactive) | > 100 µM (inactive) | > 100 µM (inactive) | > 100 µM (inactive) | > 39.3 µM (inactive)
7 | COC1(C)CCC(OS(C)(=O)=O)CO1 (centres undefined) | > 100 µM (inactive) | > 100 µM (inactive) | > 100 µM (inactive) | > 100 µM (inactive) | > 100 µM (inactive) | > 100 µM (inactive) | > 100 µM (inactive) | > 100 µM (inactive) | > 100 µM (inactive) | > 100 µM (inactive) | > 100 µM (inactive) | > 100 µM (inactive) | > 100 µM (inactive) | > 100 µM (inactive) | > 100 µM (inactive) | > 100 µM (inactive) | > 100 µM (inactive) | > 100 µM (inactive) | > 100 µM (inactive) | > 100 µM (inactive)
8 | Cc1cc(C23OC4COC(C)(C)OC4C2OC(C)(C)O3)nc2ccccc12 (centres undefined) | > 100 µM (inactive) | > 100 µM (inactive) | > 100 µM (inactive) | > 100 µM (inactive) | > 100 µM (inactive) | > 100 µM (inactive) | > 100 µM (inactive) | > 100 µM (inactive) | > 100 µM (inactive) | > 100 µM (inactive) | > 100 µM (inactive) | 31.3 µM (inactive) | > 100 µM (inactive) | > 100 µM (inactive) | > 100 µM (inactive) | > 100 µM (inactive) | > 100 µM (inactive) | > 100 µM (inactive) | 25.5 µM (inactive) | > 100 µM (inactive)
9 | COc1cc2c(cc1OC)[C@H]1C(=O)c3cc4c(cc3[C@H]1N(C)C2=O)OCO4 | 5.2 µM (inactive) | 8.43 µM (inactive) | 0.682 µM (active) | 7.53 µM (inactive) | > 100 µM (inactive) | 21.8 µM (inactive) | 6.32 µM (inactive) | 2.44 µM (inactive) | 30.4 µM (inactive) | 4.81 µM (inactive) | 0.879 µM (active) | 11.2 µM (inactive) | 2.35 µM (inactive) | > 100 µM (inactive) | 3.94 µM (inactive) | 6.14 µM (inactive) | 1.5 µM (inactive) | 0.955 µM (active) | 0.3 µM (active) | 22.2 µM (inactive)
10 | COc1cc(-c2nc3ccccn3c2/N=C/c2cc(Br)cc(Br)c2O)ccc1O | 24.3 µM (inactive) | 27.6 µM (inactive) | 48.8 µM (inactive) | 23.3 µM (inactive) | 23.9 µM (inactive) | > 100 µM (inactive) | 27.1 µM (inactive) | 26.4 µM (inactive) | 23.4 µM (inactive) | 22 µM (inactive) | 27 µM (inactive) | 22.9 µM (inactive) | 20.7 µM (inactive) | 16.6 µM (inactive) | 27.4 µM (inactive) | 26.9 µM (inactive) | 24 µM (inactive) | 35.1 µM (inactive) | 22.9 µM (inactive) | 23.4 µM (inactive)
11 | Cc1cc(C)n2c(nc3ccccc32)c1C#N | > 100 µM (inactive) | > 100 µM (inactive) | > 100 µM (inactive) | > 100 µM (inactive) | > 100 µM (inactive) | > 100 µM (inactive) | > 100 µM (inactive) | > 100 µM (inactive) | > 100 µM (inactive) | > 100 µM (inactive) | > 100 µM (inactive) | > 100 µM (inactive) | > 100 µM (inactive) | > 100 µM (inactive) | > 100 µM (inactive) | > 100 µM (inactive) | > 100 µM (inactive) | > 10 µM (inactive) | 93.8 µM (inactive) | 22.4 µM (inactive)
12 | CCOC(=O)C1=C(C)N(Cc2ccccc2)C2(O)C(OC)CC(=O)C3C(=O)N(c4ccccc4)C(=O)C132 (centres undefined) | 15.8 µM (inactive) | 3.9 µM (inactive) | 10.4 µM (inactive) | 14.5 µM (inactive) | 22.4 µM (inactive) | 7.74 µM (inactive) | 15.5 µM (inactive) | 4.93 µM (inactive) | 5.53 µM (inactive) | 13.8 µM (inactive) | 5.66 µM (inactive) | 15.7 µM (inactive) | 15.2 µM (inactive) | 7.33 µM (inactive) | 15 µM (inactive) | 7.21 µM (inactive) | 3.39 µM (inactive) | 6.98 µM (inactive) | 7.45 µM (inactive) | 14.2 µM (inactive)
13 | Cc1ccc2c(c1)-c1c(C#N)c(N)nc(-c3ccccc3)c1CCS2(=O)=O | 8.65 µM (inactive) | 6.19 µM (inactive) | 8.53 µM (inactive) | 2.45 µM (inactive) | > 100 µM (inactive) | 11 µM (inactive) | 6.31 µM (inactive) | 5.6 µM (inactive) | 11.7 µM (inactive) | 5.26 µM (inactive) | 3.84 µM (inactive) | 5.31 µM (inactive) | 5.47 µM (inactive) | 11.8 µM (inactive) | 6.35 µM (inactive) | 6.03 µM (inactive) | 12.6 µM (inactive) | 4.17 µM (inactive) | 7.53 µM (inactive) | 56.5 µM (inactive)
14 | N#Cc1c(N)c2c(c(-c3ccccc3)c1-c1ccccc1)C(=O)N(Nc1ccccc1)C2=O |  | 31.3 µM (inactive) | 59.2 µM (inactive) | > 100 µM (inactive) | 42.1 µM (inactive) | 26.9 µM (inactive) | 48.6 µM (inactive) | > 100 µM (inactive) | 78.3 µM (inactive) | 38.2 µM (inactive) | 49.9 µM (inactive) | 34.8 µM (inactive) | 41.5 µM (inactive) | 46.6 µM (inactive) | 35.8 µM (inactive) | 20.7 µM (inactive) | 16.9 µM (inactive) | 34 µM (inactive) | 27.4 µM (inactive) | 48.1 µM (inactive)
